The values below come from DBAASP.

Values after ≈ are worked out from the molar mass of the structure shown.

Holding throughout (assay): ≥ marks a high value that may be exact or a test limit, other limits are often not marked, values filed in µg/mL are converted to µM
Test [1] has as its system Staphylococcus aureus ATCC 25923.
Test [2] deals with Batrachochytrium dendrobatidis JEL-197.
The test system of test [3] is Escherichia coli ATCC 25726.
In test [4] the test system is Escherichia coli ATCC 25922.
For another test, the system named is Vibrio cholerae CUN 09.
For test [5], the system named is Pseudomonas aeruginosa CUN 4158-02.
The subject of test [6] is Staphylococcus aureus ATCC 43300.
The subject of test [7] is Bordetella bronchiseptica CUN 11844-99.
Test [8] has as its system Enterococcus faecium t62764.
The subject of test [9] is Pseudomonas aeruginosa H1027.
Test [10] relates to Pseudomonas aeruginosa PAO1 H103.
For test [11], the system named is Escherichia coli ESBL 64771.
Test [12] relates to Stenotrophomonas maltophilia ATCC 13637.
In test [13] the test system is Pseudomonas aeruginosa LES400.
For test [14], the system named is Klebsiella pneumoniae ESBL 63575.
In test [15] the test system is Klebsiella pneumoniae ESBL 61962.
For test [16], the system named is Enterococcus faecalis f43559.
The subject of test [17] is Staphylococcus aureus C623.
In test [18] the test system is Enterococcus faecalis W61950.
For test [19], the system named is Enterococcus faecium mic80.
Test [20] relates to Enterobacter cloacae 218R.
For test [21], the system named is Enterococcus faecalis ATCC 29212.
The test system of test [22] is Pseudomonas aeruginosa 198.
For test [23], the system named is Escherichia coli ESBL 63103.
The subject of test [24] is Pseudomonas aeruginosa 213.
The next test concerns Pseudomonas aeruginosa 9.
Test [25] concerns Pseudomonas aeruginosa H1030.

`CC[C@H](C)[C@H](NC(=O)[C@@H](NC(=O)[C@@H]1CCCN1C(=O)[C@H](CC(C)C)NC(=O)[C@@H](N)Cc1ccccc1)[C@@H](C)CC)C(=O)N[C@H](C(=O)N[C@@H](CC(N)=O)C(=O)N[C@@H](CC(C)C)C(=O)N[C@@H](CC(C)C)C(=O)NCC(=O)N[C@@H](CCCCN)C(=O)N[C@@H](CC(C)C)C(=O)N[C@@H](CC(C)C)C(N)=O)[C@@H](C)O` [FLPIITNLLGKLL]: the figures for the MIC in test [1], in [2] and in test [3] were 6 µM (≈ 8.72 µg/mL), at least 100 µM and at least 100 µM, respectively.
As to `CC(C)C[C@H](NC(=O)[C@H](CCCCN)NC(=O)CNC(=O)[C@H](CCCCN)NC(=O)[C@H](Cc1ccccc1)NC(=O)[C@H](CCCCN)NC(=O)[C@H](Cc1c[nH]c2ccccc12)NC(=O)[C@H](CCCN=C(N)N)NC(=O)[C@H](Cc1ccccc1)NC(=O)[C@H](CCCN=C(N)N)NC(=O)[C@H](CCCN=C(N)N)NC(=O)[C@H](Cc1ccc(O)cc1)NC(=O)[C@H](CCCCN)NC(=O)[C@H](CCCCN)NC(=O)[C@H](CS)NC(=O)CN)C(=O)N[C@@H](Cc1ccccc1)C(=O)N[C@@H](CC(C)C)C(=O)N[C@@H](Cc1ccccc1)C(=O)NCC(N)=O` [GCKKYRRFRWKFKGKLFLFG], the MIC in test [4] was 3.12 µM (≈ 8 µg/mL); in test [1] it was 3.12 µM (≈ 8 µg/mL); in the test with Vibrio cholerae CUN 09, 6.24 µM (≈ 16 µg/mL); in [5], 6.24 µM (≈ 16 µg/mL); in test [6] it was 3.12 µM (≈ 8 µg/mL); in test [7] it was 1.56 µM (≈ 4 µg/mL).
As for `CC[C@H](C)[C@H](NC(=O)[C@H](Cc1c[nH]c2ccccc12)NC(=O)[C@H](CCCCN)NC(=O)[C@@H](N)CCCN=C(N)N)C(=O)N[C@@H](Cc1c[nH]c2ccccc12)C(=O)N[C@@H](CCCN=C(N)N)C(=O)N[C@@H](Cc1c[nH]c2ccccc12)C(=O)N[C@@H](Cc1ccccc1)C(=O)N[C@@H](CC(C)C)C(=O)O` [RKWIWRWFL], the MIC in test [8] was 1.58 µM (≈ 2.2 µg/mL); in [9] it was 0.791 µM (≈ 1.1 µg/mL); in test [10] it was 3.16 µM (≈ 4.4 µg/mL); in test [11], 0.791 µM (≈ 1.1 µg/mL); in [1], 1.58 µM (≈ 2.2 µg/mL); in test [12], 0.791 µM (≈ 1.1 µg/mL). The minimum inhibitory concentration (MIC) in test [13] turned out to be 3.16 µM (≈ 4.4 µg/mL); in test [14] it was 1.58 µM (≈ 2.2 µg/mL); in test [15], 1.58 µM (≈ 2.2 µg/mL); in test [16], 12.2 µM (≈ 17 µg/mL); in test [17], 1.58 µM (≈ 2.2 µg/mL); in test [18], 12.2 µM (≈ 17 µg/mL). The MIC turned out to be 1.58 µM (≈ 2.2 µg/mL) in test [19]; 1.58 µM (≈ 2.2 µg/mL) in test [20]; 3.16 µM (≈ 4.4 µg/mL) in [21]; 1.58 µM (≈ 2.2 µg/mL) in test [22]; 0.791 µM (≈ 1.1 µg/mL) in test [23]; 3.16 µM (≈ 4.4 µg/mL) in test [24]. Also, the minimum inhibitory concentration (MIC) was 6.18 µM (≈ 8.6 µg/mL) against Pseudomonas aeruginosa 9 and 1.58 µM (≈ 2.2 µg/mL) in [25].
`CC[C@H](C)[C@H](NC(=O)[C@H](Cc1ccccc1)NC(=O)[C@H](CCCCN)NC(=O)[C@H](Cc1ccccc1)NC(=O)[C@H](CCCN=C(N)N)NC(=O)[C@@H](N)CCCN=C(N)N)C(=O)N[C@@H](CCCN=C(N)N)C(=O)N[C@@H](Cc1c[nH]c2ccccc12)C(=O)N[C@@H](Cc1c[nH]c2ccccc12)C(=O)O` [RRFKFIRWW]: the MIC in test [8] was found to be 3.15 µM (≈ 4.4 µg/mL); in test [9], 1.58 µM (≈ 2.2 µg/mL); in [10], 3.15 µM (≈ 4.4 µg/mL); in test [11], 6.17 µM (≈ 8.6 µg/mL); in [1], 3.15 µM (≈ 4.4 µg/mL); in test [12] it was 0.43 µM (≈ 0.6 µg/mL). Moreover, the MIC in [13] is 6.17 µM (≈ 8.6 µg/mL); in test [14] it was 25.1 µM (≈ 35 µg/mL); in test [15], at least 50.2 µM; in [16], 25.1 µM (≈ 35 µg/mL); in test [17] it was 3.15 µM (≈ 4.4 µg/mL); in test [18], at least 50.2 µM. Also, the MIC was 3.15 µM (≈ 4.4 µg/mL) in test [19]; 6.17 µM (≈ 8.6 µg/mL) in test [20]; 6.17 µM (≈ 8.6 µg/mL) in [21]; 25.1 µM (≈ 35 µg/mL) in [22]; 6.17 µM (≈ 8.6 µg/mL) in test [23]; 25.1 µM (≈ 35 µg/mL) in [24]. The figures for the MIC (with Pseudomonas aeruginosa 9; in test [25]) were 12.2 µM (≈ 17 µg/mL) and 25.1 µM (≈ 35 µg/mL), respectively.

As a reminder, the MIC is the smallest concentration in the dilution series that meets the test's criterion for growth inhibition. Read a high MIC as a need for much substance.
